We go through 1 compound from ChEMBL document CHEMBL4303773 (Nature, 2020).

Experiment [1] addresses Voltage-gated inwardly rectifying potassium channel KCNH2 (Homo sapiens, UniProt Q12809).
Description: hERG binding assays: Displacement of [3H]-Dofetilide (5 nM final) from hERG membranes obtained from HEK293 cells
For experiment [2], the target named is T1, Muscarinic acetylcholine receptor M1 (Homo sapiens, UniProt P11229).
T1 sequence (P11229 whole entry): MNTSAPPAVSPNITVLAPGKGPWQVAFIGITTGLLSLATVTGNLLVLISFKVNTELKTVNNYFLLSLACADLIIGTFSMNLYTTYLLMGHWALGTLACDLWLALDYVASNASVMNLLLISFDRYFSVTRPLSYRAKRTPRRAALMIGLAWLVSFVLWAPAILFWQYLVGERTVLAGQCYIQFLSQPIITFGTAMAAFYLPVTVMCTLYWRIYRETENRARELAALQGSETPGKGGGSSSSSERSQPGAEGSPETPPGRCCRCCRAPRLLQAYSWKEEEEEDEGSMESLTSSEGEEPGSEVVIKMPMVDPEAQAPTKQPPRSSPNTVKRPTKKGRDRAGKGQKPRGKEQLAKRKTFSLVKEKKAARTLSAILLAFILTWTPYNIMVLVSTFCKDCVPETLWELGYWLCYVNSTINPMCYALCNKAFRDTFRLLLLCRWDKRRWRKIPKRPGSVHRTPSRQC

In experiment [3] the target is T2, Alpha-2A adrenergic receptor (Homo sapiens, UniProt P08913).
T2 sequence (P08913 whole entry): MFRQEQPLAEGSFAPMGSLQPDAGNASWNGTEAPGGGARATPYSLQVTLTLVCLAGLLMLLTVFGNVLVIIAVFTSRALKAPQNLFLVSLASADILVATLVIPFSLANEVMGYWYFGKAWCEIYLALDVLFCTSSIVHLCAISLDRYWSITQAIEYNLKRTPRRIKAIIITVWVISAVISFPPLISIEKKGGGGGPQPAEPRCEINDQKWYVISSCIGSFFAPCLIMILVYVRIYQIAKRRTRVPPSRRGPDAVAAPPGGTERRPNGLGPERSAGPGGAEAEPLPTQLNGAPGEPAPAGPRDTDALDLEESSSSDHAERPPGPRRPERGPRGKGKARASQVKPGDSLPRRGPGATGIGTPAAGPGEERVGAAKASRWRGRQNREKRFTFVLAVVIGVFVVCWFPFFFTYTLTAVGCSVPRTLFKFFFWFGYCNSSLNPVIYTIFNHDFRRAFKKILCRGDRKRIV
The experiment is described as follows: Activity of compound against Alpha-2A (ADRA2A) adrenergic receptor by displacement of [3H]-rauwolscine. For orientation: Displacement assays read how much labelled ligand stays bound in the presence of the test substance.

Experiment [4] concerns the target Sigma non-opioid intracellular receptor 1 (Homo sapiens, UniProt Q99720).
Description: Displacement of [3H]-pentazocin from the Sigma1 receptor
For experiment [5], the target named is Muscarinic acetylcholine receptor M3 (Homo sapiens, UniProt P20309).
Sequence of Muscarinic acetylcholine receptor M3 (P20309 whole entry): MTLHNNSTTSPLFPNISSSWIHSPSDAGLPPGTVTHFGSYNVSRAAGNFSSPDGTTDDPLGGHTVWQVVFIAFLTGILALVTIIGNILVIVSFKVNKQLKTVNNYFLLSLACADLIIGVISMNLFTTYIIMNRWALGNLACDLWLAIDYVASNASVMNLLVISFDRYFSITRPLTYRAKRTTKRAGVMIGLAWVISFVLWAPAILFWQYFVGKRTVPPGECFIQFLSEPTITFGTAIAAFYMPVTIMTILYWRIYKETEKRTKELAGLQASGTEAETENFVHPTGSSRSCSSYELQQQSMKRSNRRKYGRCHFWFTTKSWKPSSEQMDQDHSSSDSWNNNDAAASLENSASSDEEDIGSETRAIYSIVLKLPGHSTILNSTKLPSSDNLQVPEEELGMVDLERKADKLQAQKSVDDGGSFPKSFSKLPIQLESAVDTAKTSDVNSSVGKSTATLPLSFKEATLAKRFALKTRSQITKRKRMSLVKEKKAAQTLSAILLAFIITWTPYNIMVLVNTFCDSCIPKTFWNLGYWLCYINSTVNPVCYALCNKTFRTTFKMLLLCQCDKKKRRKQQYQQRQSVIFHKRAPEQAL

Sequence of Sigma non-opioid intracellular receptor 1 (Q99720 whole entry): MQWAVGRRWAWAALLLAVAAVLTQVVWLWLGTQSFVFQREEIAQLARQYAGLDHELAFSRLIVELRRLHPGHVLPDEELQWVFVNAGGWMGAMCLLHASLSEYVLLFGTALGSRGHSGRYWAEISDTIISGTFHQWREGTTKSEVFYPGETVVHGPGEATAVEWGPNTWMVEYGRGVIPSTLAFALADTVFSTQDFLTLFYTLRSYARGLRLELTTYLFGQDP
Sequence of Voltage-gated inwardly rectifying potassium channel KCNH2 (Q12809 whole entry): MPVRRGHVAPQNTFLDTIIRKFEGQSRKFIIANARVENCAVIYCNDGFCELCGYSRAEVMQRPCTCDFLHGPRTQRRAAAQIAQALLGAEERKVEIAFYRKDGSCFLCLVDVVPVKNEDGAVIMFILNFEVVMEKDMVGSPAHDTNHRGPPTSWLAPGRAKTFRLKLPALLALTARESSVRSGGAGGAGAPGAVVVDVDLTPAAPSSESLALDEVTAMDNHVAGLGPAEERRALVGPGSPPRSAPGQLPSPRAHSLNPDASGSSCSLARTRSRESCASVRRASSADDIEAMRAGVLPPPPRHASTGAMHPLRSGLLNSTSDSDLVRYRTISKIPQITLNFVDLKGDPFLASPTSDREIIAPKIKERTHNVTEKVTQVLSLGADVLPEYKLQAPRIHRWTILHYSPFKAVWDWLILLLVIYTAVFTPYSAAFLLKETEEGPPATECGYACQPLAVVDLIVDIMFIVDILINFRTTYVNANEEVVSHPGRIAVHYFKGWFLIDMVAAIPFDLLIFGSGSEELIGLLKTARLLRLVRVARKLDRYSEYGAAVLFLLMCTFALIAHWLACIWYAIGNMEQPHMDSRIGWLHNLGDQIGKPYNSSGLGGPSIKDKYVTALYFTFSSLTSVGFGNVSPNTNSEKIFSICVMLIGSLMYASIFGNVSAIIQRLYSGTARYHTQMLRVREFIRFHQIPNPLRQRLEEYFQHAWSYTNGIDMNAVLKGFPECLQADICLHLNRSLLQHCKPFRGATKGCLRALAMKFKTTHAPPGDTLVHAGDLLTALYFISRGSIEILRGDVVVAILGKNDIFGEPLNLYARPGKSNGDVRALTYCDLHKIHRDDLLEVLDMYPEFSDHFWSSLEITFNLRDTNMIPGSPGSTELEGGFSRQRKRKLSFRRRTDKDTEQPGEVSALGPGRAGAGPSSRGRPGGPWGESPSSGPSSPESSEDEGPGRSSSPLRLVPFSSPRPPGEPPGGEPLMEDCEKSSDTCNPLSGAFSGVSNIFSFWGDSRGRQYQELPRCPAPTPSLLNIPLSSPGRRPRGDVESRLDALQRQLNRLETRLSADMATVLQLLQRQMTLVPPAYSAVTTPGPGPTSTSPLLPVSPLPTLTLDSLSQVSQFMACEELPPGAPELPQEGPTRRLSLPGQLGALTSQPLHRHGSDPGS

`CCCN1CCC=C(c2cc(-c3ccc(C)cc3)no2)C1`: the Ki (usually a measure of affinity in units of concentration, obtained from inhibition or displacement) in experiment [1] was 10 µM; in experiment [2], > 31.6 µM; in experiment [3] it was 8.32 µM; in experiment [4] it was 0.002 µM; in experiment [5], 24 µM.
